pKd: −log10 of the molar value. Positions of bridges follow the written chain, without caps; N, C: chain ends. Residues, ends and D or L forms follow the SMILES beside them.
Key:
Format in all cases: binding
FGF-R4 ECD = target: T1, FGF-R4 ECD (Homo sapiens, UniProt P22455); assay: single concentration BLI of crude peptides; settings: crude T18 selection 1 (1:1:1) peptides, single concentration BLI (Table S4); read-out: KD (4)
T1 construct: DNA constructs for the extracellular domain (ECD) of human FGF-; HPC4 (C); made in house; host or cells: HEK 293-6E
T1 sequence (P22455 22-369 limits assumed): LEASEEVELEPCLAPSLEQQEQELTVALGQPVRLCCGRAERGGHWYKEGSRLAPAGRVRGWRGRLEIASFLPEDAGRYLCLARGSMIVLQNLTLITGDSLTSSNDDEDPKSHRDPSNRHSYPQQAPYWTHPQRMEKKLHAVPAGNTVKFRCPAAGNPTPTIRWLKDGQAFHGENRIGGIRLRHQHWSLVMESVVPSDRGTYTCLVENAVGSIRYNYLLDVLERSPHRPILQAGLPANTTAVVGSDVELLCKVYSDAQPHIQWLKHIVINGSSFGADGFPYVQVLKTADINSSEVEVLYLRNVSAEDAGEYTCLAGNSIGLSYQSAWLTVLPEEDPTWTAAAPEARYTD
Description: (§1) KD affinity binding measurements were obtained by biolayer interferometry (BLI) instruments (Fortebio Octet HTX, or Sartorius Octet RH16 using either 8 or 16 channel mode.
For single concentration binding experiments, 50 μM peptide stocks in folding buffer were diluted 1:50 in mRNA display selection buffer (PBS pH7.4 supplemented with 0.05% Tween-20 and 0.01% BSA) in either a 96 well black plate, or a 384 well tilted bottom microplate (ForteBio). Biotinylated FGF-R protein was loaded onto Streptavidin-functionalised biosensors (ForteBio) and immersed into ~1 μM peptide to obtain association kinetics curves. Dissociation kinetics curves were obtained by subsequent immersion of ligand-associated loaded sensors into a 1:50 dilution of folding buffer in mRNA display selection buffer. Fitted KD data was adjusted for concentration as determined by UPLC-CAD. […]

FGF-R3C ECD = target: T2, FGF-R3C ECD (Homo sapiens, UniProt P22607); assay: biochemical; set-up: DNA constructs for the extracellular domain (ECD) of human FGF-; HPC4 (C); made in house; host or cells: HEK 293-6E
T2 sequence (P22607 23-375 limits assumed): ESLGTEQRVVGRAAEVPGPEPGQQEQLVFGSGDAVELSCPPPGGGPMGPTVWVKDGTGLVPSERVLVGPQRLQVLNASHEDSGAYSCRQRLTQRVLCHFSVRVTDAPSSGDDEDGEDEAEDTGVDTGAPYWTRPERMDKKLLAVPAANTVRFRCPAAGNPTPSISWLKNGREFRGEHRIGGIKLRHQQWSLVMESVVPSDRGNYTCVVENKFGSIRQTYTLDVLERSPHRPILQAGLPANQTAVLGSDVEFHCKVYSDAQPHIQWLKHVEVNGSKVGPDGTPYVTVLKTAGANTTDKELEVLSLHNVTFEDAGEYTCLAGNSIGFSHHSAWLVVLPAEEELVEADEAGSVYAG
Description: as §1
(§2) For single concentration binding experiments, 50 μM peptide stocks in folding buffer were diluted 1:50 in mRNA display selection buffer (PBS pH7.4 supplemented with 0.05% Tween-20 and 0.01% BSA) in either a 96 well black plate, or a 384 well tilted bottom microplate (ForteBio). Biotinylated FGF-R protein was loaded onto Streptavidin-functionalised biosensors (ForteBio) and immersed into ~1 μM peptide to obtain association kinetics curves. Dissociation kinetics curves were obtained by subsequent immersion of ligand-associated loaded sensors into a 1:50 dilution of folding buffer in mRNA display selection buffer. Fitted KD data was adjusted for concentration as determined by UPLC-CAD.
(§3) For accurate multi-concentration KD determination, dilution series of each peptide were made, and association and dissociation kinetics curves were obtained as above for each concentration to fit a multi-point KD binding model. Data collection and analysis was performed using the Octet Instrument Control […]
(§4) concentration assay kinetics curves shown in supplementary Figure S 19-24.

FGF-R1C ECD = target: T3, FGF-R1C ECD (Homo sapiens, UniProt P11362); assay: biochemical; set-up: DNA constructs for the extracellular domain (ECD) of human FGF-; HPC4 (C); made in house; host or cells: HEK 293-6E
T3 sequence (P11362 22-376 limits assumed): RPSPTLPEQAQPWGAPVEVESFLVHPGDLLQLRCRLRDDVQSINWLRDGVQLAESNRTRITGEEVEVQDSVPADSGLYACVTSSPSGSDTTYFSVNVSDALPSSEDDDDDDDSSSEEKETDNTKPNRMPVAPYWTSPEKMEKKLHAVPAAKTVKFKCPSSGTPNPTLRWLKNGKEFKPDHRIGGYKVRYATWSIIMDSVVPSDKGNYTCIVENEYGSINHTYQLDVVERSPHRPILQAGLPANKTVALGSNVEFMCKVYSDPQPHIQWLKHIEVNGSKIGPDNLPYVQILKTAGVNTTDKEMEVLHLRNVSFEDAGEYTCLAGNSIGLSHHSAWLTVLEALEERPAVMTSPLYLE
Description: as §1, §2, §3, §4

Compound | pKd (FGF-R4 ECD) | pKd (FGF-R3C ECD) | pKd (FGF-R1C ECD)
CC[C@H](C)[C@@H]1NC(=O)[C@H](Cc2ccc(O)cc2)NC(=O)[C@H](Cc2ccc(O)cc2)NC(=O)[C@H](Cc2ccccc2)NC(=O)[C@H](CC(C)C)NC(=O)[C@H](CC(=O)O)NC(=O)[C@H](CCC(=O)O)NC(=O)[C@@H](NC(=O)[C@H](CCSC)NC(C)=O)CSSC[C@@H](C(=O)NCC(=O)N[C@@H](CO)C(=O)NCC(=O)N[C@@H](CO)C(=O)N[C@@H](CC(=O)O)C(=O)N[C@@H](Cc2ccc(O)cc2)C(=O)N[C@@H](CCCCN)C(=O)N[C@@H](CC(=O)O)C(=O)N[C@@H](CC(=O)O)C(=O)N[C@@H](CC(=O)O)C(=O)N[C@@H](CC(=O)O)C(=O)N[C@@H](CCCCN)C(N)=O)NC(=O)CNC(=O)[C@H](Cc2ccc(O)cc2)NC(=O)[C@H](CCCNC(=N)N)NC(=O)[C@H](CC(N)=O)NC(=O)[C@H]([C@@H](C)CC)NC1=O (Ac-MCEDLFYYIINRYGCGSGSDYKDDDDK-NH2; disulfide 2-15) | 7.74 | < 5.00 | < 5.00
CSCC[C@H](NC(C)=O)C(=O)N[C@H]1CSSC[C@@H](C(=O)NCC(=O)N[C@@H](CO)C(=O)NCC(=O)N[C@@H](CO)C(=O)N[C@@H](CC(=O)O)C(=O)N[C@@H](Cc2ccc(O)cc2)C(=O)N[C@@H](CCCCN)C(=O)N[C@@H](CC(=O)O)C(=O)N[C@@H](CC(=O)O)C(=O)N[C@@H](CC(=O)O)C(=O)N[C@@H](CC(=O)O)C(=O)N[C@@H](CCCCN)C(N)=O)NC(=O)[C@H](Cc2c[nH]cn2)NC(=O)[C@H](Cc2c[nH]cn2)NC(=O)[C@H](Cc2ccccc2)NC(=O)[C@H](CC(C)C)NC(=O)[C@H](CC(C)C)NC(=O)[C@H](Cc2ccc(O)cc2)NC(=O)[C@H](Cc2ccc(O)cc2)NC(=O)[C@H](Cc2ccccc2)NC(=O)[C@H](CC(C)C)NC(=O)[C@H](CC(=O)O)NC(=O)[C@H](CCC(=O)O)NC1=O (Ac-MCEDLFYYLLFHHCGSGSDYKDDDDK-NH2; disulfide 2-14) | 7.09 | < 5.00 | 5.34
CSCC[C@H](NC(C)=O)C(=O)N[C@H]1CSSC[C@@H](C(=O)NCC(=O)N[C@@H](CO)C(=O)NCC(=O)N[C@@H](CO)C(=O)N[C@@H](CC(=O)O)C(=O)N[C@@H](Cc2ccc(O)cc2)C(=O)N[C@@H](CCCCN)C(=O)N[C@@H](CC(=O)O)C(=O)N[C@@H](CC(=O)O)C(=O)N[C@@H](CC(=O)O)C(=O)N[C@@H](CC(=O)O)C(=O)N[C@@H](CCCCN)C(N)=O)NC(=O)[C@H](CCC(N)=O)NC(=O)[C@H](CCCNC(=N)N)NC(=O)[C@H](CCCCN)NC(=O)[C@H](C(C)C)NC(=O)[C@H](CC(C)C)NC(=O)[C@H](CC(C)C)NC(=O)[C@H](Cc2ccc(O)cc2)NC(=O)[C@H](Cc2ccc(O)cc2)NC(=O)[C@H](Cc2ccccc2)NC(=O)[C@H](CC(C)C)NC(=O)[C@H](Cc2c[nH]cn2)NC(=O)[C@H](CCC(=O)O)NC1=O (Ac-MCEHLFYYLLVKRQCGSGSDYKDDDDK-NH2; disulfide 2-15) | 9.00 | < 5.00 | < 5.00
CSCC[C@H](NC(C)=O)C(=O)N[C@H]1CSSC[C@@H](C(=O)NCC(=O)N[C@@H](CO)C(=O)NCC(=O)N[C@@H](CO)C(=O)N[C@@H](CC(=O)O)C(=O)N[C@@H](Cc2ccc(O)cc2)C(=O)N[C@@H](CCCCN)C(=O)N[C@@H](CC(=O)O)C(=O)N[C@@H](CC(=O)O)C(=O)N[C@@H](CC(=O)O)C(=O)N[C@@H](CC(=O)O)C(=O)N[C@@H](CCCCN)C(N)=O)NC(=O)[C@H](CCC(N)=O)NC(=O)[C@H](CCC(=O)O)NC(=O)[C@H](Cc2c[nH]c3ccccc23)NC(=O)[C@H](Cc2c[nH]cn2)NC(=O)CNC(=O)[C@H](Cc2ccc(O)cc2)NC(=O)[C@@H]2CCCN2C(=O)[C@H](Cc2c[nH]cn2)NC(=O)[C@H](CCCNC(=N)N)NC(=O)[C@H](Cc2c[nH]cn2)NC(=O)[C@H](CCC(=O)O)NC1=O (Ac-MCEHRHPYGHWEQCGSGSDYKDDDDK-NH2; disulfide 2-14) | < 5.00 | < 5.00 | < 5.00
CSCC[C@H](NC(C)=O)C(=O)N[C@H]1CSSC[C@@H](C(=O)NCC(=O)N[C@@H](CO)C(=O)NCC(=O)N[C@@H](CO)C(=O)N[C@@H](CC(=O)O)C(=O)N[C@@H](Cc2ccc(O)cc2)C(=O)N[C@@H](CCCCN)C(=O)N[C@@H](CC(=O)O)C(=O)N[C@@H](CC(=O)O)C(=O)N[C@@H](CC(=O)O)C(=O)N[C@@H](CC(=O)O)C(=O)N[C@@H](CCCCN)C(N)=O)NC(=O)[C@@H]2CCCN2C(=O)[C@H](Cc2ccc(O)cc2)NC(=O)[C@H](Cc2c[nH]c3ccccc23)NC(=O)[C@H](Cc2ccc(O)cc2)NC(=O)[C@H](CC(N)=O)NC(=O)[C@H](CO)NC(=O)[C@H](Cc2c[nH]c3ccccc23)NC(=O)[C@H](CCCNC(=N)N)NC(=O)[C@H](CO)NC(=O)[C@H](CCCNC(=N)N)NC(=O)[C@H](CCC(N)=O)NC(=O)[C@H](CCC(=O)O)NC1=O (Ac-MCEQRSRWSNYWYPCGSGSDYKDDDDK-NH2; disulfide 2-15) | < 5.00 | < 5.00 | < 5.00
CC[C@H](C)[C@@H]1NC(=O)[C@H](CCCCN)NC(=O)[C@H](Cc2ccc(O)cc2)NC(=O)[C@H](Cc2c[nH]c3ccccc23)NC(=O)[C@H]([C@@H](C)CC)NC(=O)[C@H](C(C)C)NC(=O)[C@H](CCC(=O)O)NC(=O)[C@@H](NC(=O)[C@H](CCSC)NC(C)=O)CSSC[C@@H](C(=O)NCC(=O)N[C@@H](CO)C(=O)NCC(=O)N[C@@H](CO)C(=O)N[C@@H](CC(=O)O)C(=O)N[C@@H](Cc2ccc(O)cc2)C(=O)N[C@@H](CCCCN)C(=O)N[C@@H](CC(=O)O)C(=O)N[C@@H](CC(=O)O)C(=O)N[C@@H](CC(=O)O)C(=O)N[C@@H](CC(=O)O)C(=O)N[C@@H](CCCCN)C(N)=O)NC(=O)[C@H](CCCCN)NC(=O)[C@H](CCCNC(=N)N)NC(=O)[C@H](Cc2c[nH]c3ccccc23)NC(=O)[C@H](CCC(N)=O)NC1=O (Ac-MCEVIWYKIQWRKCGSGSDYKDDDDK-NH2; disulfide 2-14) | 7.92 | < 5.00 | < 5.00
CC[C@H](C)[C@@H]1NC(=O)[C@H](CC(C)C)NC(=O)[C@H](Cc2ccccc2)NC(=O)[C@H](Cc2ccc(O)cc2)NC(=O)[C@H](CCCCN)NC(=O)[C@H](C(C)C)NC(=O)[C@H](CCC(=O)O)NC(=O)[C@@H](NC(=O)[C@H](CCSC)NC(C)=O)CSSC[C@@H](C(=O)NCC(=O)N[C@@H](CO)C(=O)NCC(=O)N[C@@H](CO)C(=O)N[C@@H](CC(=O)O)C(=O)N[C@@H](Cc2ccc(O)cc2)C(=O)N[C@@H](CCCCN)C(=O)N[C@@H](CC(=O)O)C(=O)N[C@@H](CC(=O)O)C(=O)N[C@@H](CC(=O)O)C(=O)N[C@@H](CC(=O)O)C(=O)N[C@@H](CCCCN)C(N)=O)NC(=O)[C@H](Cc2c[nH]c3ccccc23)NC(=O)[C@H](CCCNC(=N)N)NC(=O)[C@H](CCCCN)NC(=O)[C@H](Cc2c[nH]c3ccccc23)NC1=O (Ac-MCEVKYFLIWKRWCGSGSDYKDDDDK-NH2; disulfide 2-14) | 7.82 | < 5.00 | 6.19

Source: article PMC10763615, “Identification and engineering of potent cyclic peptides with selective or promiscuous binding through biochemical profiling and bioinformatic data analysis” (RSC Chemical Biology, 2023)
